The text below walks through data of paper PMC12457078, “Inhibition of soluble epoxide hydrolase in endotoxin induced pig lung injury” (Frontiers in Pharmacology, 2025).

Each structure is given as a SMILES string. Read-outs that look alike come from different tables or passages of the source.

One data set addresses T1, Recombinant porcine sEH (Sus scrofa, UniProt Q6Q2C2).
T1 construct: made in house
T1 sequence (Q6Q2C2 1-555): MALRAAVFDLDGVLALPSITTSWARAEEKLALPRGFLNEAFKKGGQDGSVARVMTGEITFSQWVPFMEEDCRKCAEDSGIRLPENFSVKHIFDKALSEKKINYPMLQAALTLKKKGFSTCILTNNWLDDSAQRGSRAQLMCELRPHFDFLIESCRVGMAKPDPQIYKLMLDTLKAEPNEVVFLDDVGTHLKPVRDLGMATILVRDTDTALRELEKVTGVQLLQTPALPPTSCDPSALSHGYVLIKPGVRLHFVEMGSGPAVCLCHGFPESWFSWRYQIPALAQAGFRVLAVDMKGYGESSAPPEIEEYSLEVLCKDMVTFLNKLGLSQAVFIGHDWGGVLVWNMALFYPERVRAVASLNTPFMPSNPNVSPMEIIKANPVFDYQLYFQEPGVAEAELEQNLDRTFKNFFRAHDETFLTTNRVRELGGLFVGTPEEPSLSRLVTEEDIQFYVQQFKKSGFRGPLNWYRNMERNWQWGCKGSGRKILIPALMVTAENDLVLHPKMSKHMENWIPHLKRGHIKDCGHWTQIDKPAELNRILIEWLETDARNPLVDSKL
In words: fluorescent activity assay (MNPC substrate), sEH inhibition potency. The data set is classed as biochemical, pig.

The nature of data set [1]: liver microsomal assay (metabolic stability). The data set is classed as in vitro ADME, pig. The settings on record: pig liver microsomes, NADPH generating system, 35 min. Here is the method:
To further characterize the inhibitors with regard to suitability for administration in pigs, a microsomal assay was used to determine metabolic stability ([Ackley et al., 2004]) for a subset of eight inhibitors chosen for their potency and availability. Microsomal preparations from pig liver were purchased from XenoTech (Kansas City, KS, US). Microsomes, buffer and NADPH generating system were combined, and then the inhibitor was added. The reaction was stopped after 35 min with ice cold acetonitrile containing internal standard (12-[[(cyclohexylamino)carbonyl]amino]-dodecanoic acid). The amount left of parent inhibitor was determined with LC-MS/MS.

[2] abbreviates: 5 min preincubation 37 °C, MNPC 5 µM, read-out: Pig sEH IC50.

Take `O=C(Nc1cccc2ccccc12)NC1CCCCC1` [Compound 59]: the 50% inhibitory concentration (IC50) on Recombinant porcine sEH (setting [2]) was found to be 105 nM.

Turning to `O=C(O)CCCCCCCCCCCNC(=O)NC12CC3CC(CC(C3)C1)C2` [Compound 700], the “Liver microsomal stability: Amount remaining after 35 min (% of initial)” value in data set [1] is on record as 1 ± 0.1 % of initial. As to `CC(=O)N1CCC(NC(=O)Nc2ccc(OC(F)(F)F)cc2)CC1` [Compound 1555], the IC50 at Recombinant porcine sEH stood at 197 nM. As for `O=C(O)CCCCCCCCCCCNC(=O)Nc1ccc(OC(F)(F)F)cc1` [Compound 1663], the IC50 on Recombinant porcine sEH (setting [2]) was found to be 40 nM. Same read-out and setting: the result for `COC(=O)c1ccc(NC(=O)NC23CC4CC(CC(C4)C2)C3)cc1O` [Compound 1671] reads 5 nM. On the same count and under the same terms, the result for `O=C(Nc1ccc(OC(F)(F)F)cc1)N[C@H]1CC[C@@H](Oc2ccc(C(=O)O)cc2)CC1` [Compound 1686] reads 19 nM. Turning to `O=C(Nc1ccc(OC(F)(F)F)cc1)N[C@H]1CC[C@H](Oc2ccc(C(=O)O)cc2)CC1` [Compound 1728], the half-inhibitory concentration (IC50) on Recombinant porcine sEH (setting [2]) worked out at 34 nM. In data set [1], the “Liver microsomal stability: Amount remaining after 35 min (% of initial)” value is reported as 78 ± 3 % of initial.

Turning to `CCC(C)C(=O)N1CCC(NC(=O)Nc2ccc(OC(F)(F)F)cc2)CC1` (centres unmarked) [Compound 2385], the IC50 at Recombinant porcine sEH worked out at 19 nM. Besides, the “Liver microsomal stability: Amount remaining after 35 min (% of initial)” value in data set [1] is listed as 55 ± 3 % of initial. Turning to `CC(C)C(=O)N1CCC(NC(=O)Nc2ccc(C(F)(F)F)cc2)CC1` [Compound 2389], the 50% inhibitory concentration (IC50) at Recombinant porcine sEH (setting [2]) was found to be 70 nM. On the same count and under the same terms, for `CCCC(=O)N1CCC(NC(=O)Nc2ccc(C(F)(F)F)cc2)CC1` [Compound 2413] the value was 60 nM; for `CCC(C)C(=O)N1CCC(NC(=O)Nc2cc(C(F)(F)F)cc(C(F)(F)F)c2)CC1` (centres unmarked) [Compound 2421], 107 nM. Same read-out and setting: the result for `CC(C)C(=O)N1CCC(NC(=O)Nc2ccc(OC(F)(F)F)cc2)CC1` [Compound 2422] reads 38 nM; that for `O=C(Nc1ccc(C(F)(F)F)cc1)NC1CCN(C(=O)CC(F)(F)F)CC1` [Compound 2714], 44 nM. On to `CNc1nc(C)nc(N[C@H]2CCC[C@@H](C(=O)NCc3ccc(C#N)cc3C(F)(F)F)C2)n1` [Compound 2946], for which the IC50 on Recombinant porcine sEH (setting [2]) was 48 nM. Moreover, the “Liver microsomal stability: Amount remaining after 35 min (% of initial)” value in data set [1] was 66 ± 1 % of initial.
